Experimental data as given in PubChem BioAssay (NCI).
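The compound was tested at five concentrations on cells cultured in 96-well plates, with a 48-hour exposure period. Abbreviation: GI50, concentration required for 50% inhibition of growth. TGI: concentration producing complete growth inhibition.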 Where a SMILES comes first, the peptide text is derived from it. The star is where a group is joined. Palmitoyl = CCCCCCCCCCCCCCCC(=O)*

Experiments:
Assay in all cases: NCI-60 cell line screen, 48 h
SK-MEL-2 melanoma = test system: SK-MEL-2 melanoma
SF-268 CNS = test system: SF-268 CNS
SK-MEL-5 melanoma = test system: SK-MEL-5 melanoma
MALME-3M melanoma = test system: MALME-3M melanoma
COLO 205 colon = test system: COLO 205 colon
NCI-H226 lung = test system: NCI-H226 lung
TK-10 renal = test system: TK-10 renal
HOP-92 NSCLC = test system: HOP-92 NSCLC
HCC-2998 colon = test system: HCC-2998 colon

SMILES	TGI (SK-MEL-2 melanoma) [µM]	TGI (SF-268 CNS) [µM]	TGI (SK-MEL-5 melanoma) [µM]	TGI (MALME-3M melanoma) [µM]	TGI (COLO 205 colon) [µM]	TGI (NCI-H226 lung) [µM]	TGI (TK-10 renal) [µM]	TGI (HOP-92 NSCLC) [µM]	TGI (HCC-2998 colon) [µM]	GI50 (SK-MEL-2 melanoma) [µM]	GI50 (SF-268 CNS) [µM]	GI50 (SK-MEL-5 melanoma) [µM]	GI50 (MALME-3M melanoma) [µM]	GI50 (COLO 205 colon) [µM]	GI50 (NCI-H226 lung) [µM]	GI50 (TK-10 renal) [µM]	GI50 (HOP-92 NSCLC) [µM]	GI50 (HCC-2998 colon) [µM]
CC(C)CC1c2[nH]c3ccccc3c2C[C@H]2C(=O)NC(COC(C)(C)C)C(=O)N12 (stereo partly specified)	38.8	57.5	47.4	48.2	38.8	93	56.3	74.7										
Cc1ccc(S(=O)(=O)NC(=O)NS(=O)(=O)O)cc1	> 100	> 100	> 100	> 100	> 100		> 100	> 100										
O=C(CCCN1CCc2[nH]c3cc(F)ccc3c2C1)c1ccc(F)cc1	32.4	26.7	30.8	26	17.1	38.7	24.9	8.59	11.9									
CN1C(=O)[C@@]2(C=CC3(CC2)OCCO3)c2ccccc21	> 50	32.2	> 50		> 50	> 50	> 50	> 50	> 50									
CC(=O)Oc1ccc2c(c1)c1c(OC(C)=O)c3ccccc3c(OC(C)=O)c1n2Cc1cccc(C)c1	48.4	> 100		> 100	> 100	> 100	> 100	33.5	84.2									
CCC1(O)CN(CCOC)[C@H]2C[C@@H]1C(=O)c1[nH]c3ccccc3c12 (stereo partly specified)	> 100	> 100	> 100	> 100	> 100	> 100	> 100	> 100	> 100									
CSC1(SC)CCCCCCCCCCC1	> 100	> 100	> 100	70.9	33.9	> 100	> 100	87.5	40.5									
COc1ccc(C=O)cc1Oc1ccc(C[C@H]2c3c(cc(OC)c4c3Oc3cc5c(cc3O4)CCN(C)C5=O)CCN2C)cc1	22.9	22.4	19.4	20.2	> 50	16.8	18.4	13.7	15.1									
COC(=O)c1cc2c3c(c(C(C)=O)c(OC)c2[nH]1)NCC3	> 50	> 50	> 50	> 50	> 50	> 50	> 50											
C/C=C\C(CC(=O)O)CC(=O)NCCC1CN(S(=O)(=O)C(F)(F)F)c2ccccc21 (stereo unspecified)	> 100	> 100	> 100	> 100	> 100			> 100	> 100									
Cn1c(=O)c2[nH]c(N/N=C3/SCC(=O)N3Cc3ccccc3)nc2n(C)c1=O	> 100	> 100	> 100	> 100	> 100	> 100	> 100	87.7	> 100									
CCOC(=O)C(Cc1c(-c2[nH]c3ccccc3c2CC(NC(=O)CNC(C)=O)C(=O)OCC)[nH]c2ccccc12)NC(=O)CNC(C)=O (stereo unspecified)	39.9	> 100	> 100	38.2	35.4		> 100	85.2	47.8									
Cc1nn(C(=O)c2ccccc2O)c2c1C(c1ccc(O)cc1)SC(N)=N2 (stereo unspecified)	> 10	> 10	> 10	> 10	> 10	> 6.22	> 10		> 10									
CCOC(=O)Cc1nc2c(=O)[nH]cnc2n1C1OC(COC(C)=O)C(OC(C)=O)C1OC(C)=O (stereo unspecified)	> 100	> 100	> 100	> 100	> 100	> 100	> 100	> 100	> 100									
CCOc1cc(C=O)ccc1O	> 100	> 100	> 100	> 100	> 100	> 100	> 100	> 100	> 100									
O=C(O)CCCc1nc2c(n1-c1ccccc1)C(=O)c1ccccc1C2=O	> 100	> 100		51.8	> 100		> 100	> 100	> 100									
COC(=O)CNC(=O)/C=C/[C@H](O[Si](C)(C)C(C)(C)C)[C@H](/C=C/C(=O)NCC(=O)OC)O[Si](C)(C)C(C)(C)C	> 25	> 25	> 25	> 25	> 25	> 25	> 25	> 25	> 25									
CSc1s[s+]c(SC)c1-c1ccccc1		43	29.3	24.6	32.4		32.4	33.6	21.5									
COc1ccc([C@@]23CCC(=O)C[C@@H]2N(C)CC3)cc1OC	> 100	> 100	> 100	> 100	> 100	> 100	> 100	> 100	> 100									
N#Cc1nnc2c3c(-c4ccc(Cl)cc4)c(C#N)c(=O)[nH]c3nn2c1N	26.9	12.6	19.1	31.6	28.4	32.6	> 100	27.9	12.7									
COc1cc(O)c2c(c1)C(O)C(O)CC1OC1C(=O)/C=C/CC(C)OC2=O (stereo unspecified)	13.5	46.3	15.4	6.91	16.1	33.9	17.5	2.72	16.7									
COc1ccc(S(=O)(=O)Nc2ccc(-c3csc(N4C(=O)/C(=C/C=C\c5ccccc5)N=C4c4ccccc4)n3)cc2)cc1Cl	56.3	56.3	> 100	63.1	> 100	> 100	> 100	41.1										
COC(=O)C(Cc1ccccc1)NC(=O)CCCNC(=O)OCc1ccccc1 (stereo unspecified)		> 100	46.8	82.7	> 100	> 100	> 100	> 100	> 100									

SMILES	TGI (SK-MEL-2 melanoma) [µM]	TGI (SF-268 CNS) [µM]	TGI (SK-MEL-5 melanoma) [µM]	TGI (MALME-3M melanoma) [µM]	TGI (COLO 205 colon) [µM]	TGI (NCI-H226 lung) [µM]	TGI (TK-10 renal) [µM]	TGI (HOP-92 NSCLC) [µM]	TGI (HCC-2998 colon) [µM]	GI50 (SK-MEL-2 melanoma) [µM]	GI50 (SF-268 CNS) [µM]	GI50 (SK-MEL-5 melanoma) [µM]	GI50 (MALME-3M melanoma) [µM]	GI50 (COLO 205 colon) [µM]	GI50 (NCI-H226 lung) [µM]	GI50 (TK-10 renal) [µM]	GI50 (HOP-92 NSCLC) [µM]	GI50 (HCC-2998 colon) [µM]
O=C(O)c1ccc(Nc2cnc3ccc(C(F)(F)F)cc3n2)cc1	30.7	> 100	32	> 100	32.5	29.4	44.8	38.9	19.6									
COC(=O)CCc1ccc2c(c1)CC1(C2)Cc2ccc(CCC(=O)OC)cc2C1	> 100		57.7	> 100	> 100	> 100	> 100	99.7	> 100									
c1ccc(C/C(=N\Nc2nc3ccccc3o2)c2ccccn2)cc1	20.7	0.921	0.368	1.82	0.0114	0.363	1.81	0.268										
CC(=O)Nc1ncc2c(n1)-c1ccccc1OC2	> 100	> 100	> 100		> 100	> 100	> 100	> 100										
CCCCCCCCCCCCCCCC(=O)NC(CCCCN)C(=O)NCC(=O)NC(Cc1ccccc1)C(=O)N1CCCC1C(=O)NC(CO)C(=O)NC(Cc1ccc(O)cc1)C(=O)NC(CCCCN)C(=O)NC(CC(C)C)C(=O)NC(CCCN=C(N)N)C(=O)N1CCCC1C(=O)NCC(N)=O (stereo unspecified) (Palmitoyl-KGFPSYKLRPG-NH2; configuration not given here)	> 100	46.1	> 100	> 100	41.1	42.5	44.8	45.4	35.2	43.5	21.7	27.7	> 100	19.6	20.2	21.9	19.3	17.1
COC(=O)c1ccc(OCc2ccc3nc(-c4ccccc4)c(Cl)nc3c2)cc1	> 100	> 100	> 100		> 100		> 100	> 100	> 100									
C/C(=C/CC[C@](C)(OC1OC(CO)C(O)C(O)C1O)[C@H]1CC[C@]2(C)[C@@H]1CC[C@@H]1[C@@]3(C)CC[C@H](O)C(C)(C)[C@@H]3C[C@H](O)[C@]12C)CO (stereo partly specified)		90.7	39.8	56.5	41	60.4	> 100	> 100										
CC(C)[Si]1(C(C)C)OCC2OC(n3cnc4c(N)ncnc43)C(N)C2O[Si](C(C)C)(C(C)C)O1 (stereo unspecified)	24.6	41.4	9.01	> 100	23.9	25.8	28.9	33	14.5									
Cc1cccc(N2CCN(S(=O)(=O)c3ccc(Cl)cc3)C2=N)c1C		> 100	> 100		> 100	> 100	> 100											
Cc1cnc2[nH]c(-c3ccccc3)cc(=O)c2c1	> 35.7	> 100	21.2	> 100	> 100	9.69	99.5	> 42.2	1.96									
CCOP(=O)(OCC)C(F)(F)CC1CCCCC1	> 10	> 10	> 10	> 10	> 10	> 10	> 10	> 10	> 10									
COCCCN1C(=O)C2c3[nH]c4ccccc4c3C3CCC(C(C)(C)C)CC3C2C1=O (stereo unspecified)		> 100	82.4		> 10	60.6	> 100		54.6									
C=C(CCC(C(=O)O)C1CCC2(C)C3=C(CCC12C)C1(C)CCC(O)C(C)(C)C1CC3)C(C)C (stereo unspecified)	> 100	> 100	> 100		> 100	96.3	> 100	> 100	> 100									
COC1(OC)/C(=C(\N)C=O)NC(C)(C)N1O	> 100		> 100	> 100	> 100	> 100		> 100	> 100									
O=C1O/C(=C\c2ccc(O)cc2)C(c2ccc(O)c(Cl)c2)=C1Br	28.5	45.2	25.9	29.5	33.4		49.9	32.1	23.6									
COc1ccccc1OC/C(N=Cc1ccncc1)=N/NC(=O)c1ccncc1	> 100	> 100		> 100	> 100	> 100	> 100	> 100	> 100									
O=C(O)c1ccccc1-c1ccccc1C(=O)c1ccccc1	> 100	> 100	> 100	> 100	> 100	> 100	> 100	> 100										
COc1cccc(N2N=C3c4ccccc4-n4c(nc5ccccc54)C3C2N)c1 (stereo unspecified)	> 100	> 100	> 100	> 100	> 100		> 100	> 100	> 100									
CCOc1ccc(NC(=S)/N=C/C(C(=O)Nc2ccccc2C)=C(\C)O)cc1	> 100	> 100	> 100		> 100	> 100	> 100		> 100									
COC1=CC2(C=CC1=O)CCN=c1c(O)c3c(c(O)c12)=NC=N3 (stereo unspecified)	> 100	> 100	> 100	> 100	> 100		> 100	> 100	> 100									
Cc1ccc(C2=Nn3c(nc4sc(-c5ccccc5)cc4c3=O)SC2)cc1		> 100	> 100	> 100	> 100	> 100	> 100	> 100	> 100									
BrCC[P+](c1ccccc1)(c1ccccc1)c1ccccc1	16.7	8.25	26.3		17.6		34.5	13.1	27.2									
C=C1C(=O)O[C@H]2C(=O)[C@H](C)CCC[C@@](C)(O)/C=C\C[C@@]3(C)O[C@@H]3C[C@@H]12	41.5	50.8	29		30.4	> 100	15.1	23.8										
